Experiments:
hTRPA1 = biological target: T1, hTRPA1 (Homo sapiens, UniProt O75762, K186N); assay: hTRPA1 Fluo4 calcium flux assay in HEK293/TREx cells; type: cell-based; conditions: Table 2; read-out: hTRPA1 Fluor IC50
T1 construct: expressed in transfected cells; host or cells: HEK293/TREx (Invitrogen), stably transfected, tetracycline-induced
Text: The assay depended on detection of the rise in intracellular Ca^2+ concentration ([Ca^2+]i) following channel activation in cells inducibly expressing the TRPA1 channel. Ca^2+ rise was quantified with the use of fluorescent Ca^2+ indicators that were loaded into cells and thereafter indicated the [Ca^2+]i. Ca^2+ influx followed activation of the TRPA1 channel. Compounds inhibiting the [Ca^2+]i rise were considered hits for further investigation.
These cells were maintained in the growth medium recommended by the manufacturer supplemented with 100 μg/ml hygromycin to promote retention of the TRPA1 construct. After growing to near confluency, cells were plated at a density of ˜25,000 cells/well in 384 well CellBind plates (Corning) in the presence of 1 μg/ml tetracycline, and allowed to grow for 20-30 hrs. A nearly confluent monolayer resulted. […] These controls defined a screening window, and “hits” were defined as those compounds inhibiting the fluorescence response by at least 40%. IC50 values were determined for compounds defined as “hits.” The Fluo4 cell-based fluorescence assay was used to determine the intracellular Ca^2+ concentration in the presence of varying drug concentration. […]

[1] = test system: carrageenan-induced inflammation (paw volume); assay: Carrageenan model of acute inflammatory pain; type: in vivo, rat; conditions: IP, 30-60 minutes before testing
Experimental: In this study, the drug administered was either a TRPA1 inhibitor or the non-steroidal anti-inflammatory diclofenac. Following administration of both carrageenan and drug or vehicle control, paw volume was measured and used to assess decreased inflammation.

[2] = test system: CFA induced thermal hyperalgesia; assay: CFA model of inflammatory pain
Experimental: FIG. 4 summarizes data obtained following testing of Compound 200 in the CFA model. Naive rats were pretested for sensitivity to a heat stimulus in the Hargreaves apparatus. The next day, 100 μL of complete Freund's adjuvant (CFA) was injected into the plantar surface of the right hindpaw. Two days later, in the morning, the rats were again pretested. In the afternoon, rats were injected with either vehicle control or with drug (TRPA1 inhibitor 200 or the non-steroidal anti-inflammatory diclofenac). Drugs or vehicle were injected intraperitoneally, and 45 minutes later rats were tested for hyperalgesia by applying the heat source to the CFA injected and uninjected hindpaw and measuring latency to withdrawal.

[3] = Plasma levels / pharmacokinetics in male Sprague-Dawley rat; type: in vivo; conditions: oral suspension 12 mg/kg
Experimental: Compound 200 plasma levels were determined via HPLC/MS/MS following a single intravenous bolus dose of 0.9 mg/kg, an intraperitoneal dose of 12 mg/kg (suspension), and an oral dose of 12 mg/kg (suspension) in the male Sprague-Dawley rat. […] For intraperitoneal administration, Compound 200 was formulated as a uniform suspension in CMC (carboxymethylcellulose) at a target concentration of 1 mg/mL and administered at a dose volume of 10 mL/kg. For oral administration, Compound 200 was formulated as a uniform suspension in CMC (carboxymethylcellulose), at a target concentration of 1 mg/mL, administered by gavage, at a dose volume of 10 mL/kg, to the conscious, fasted, male Sprague-Dawley rat.

[4] = test system: bladder pressure in BOO rats; assay: Partial bladder outlet obstruction (BOO) model of incontinence; conditions: intravesical infusion
Text: Efficacy of the varying doses of TRPA1 inhibitory compound were compared to controls administered excipients alone (sham control). Efficacy was also compared to rats administered a positive control, such as atropine.
Female Sprague Dawley rats were used in these studies. Rats underwent surgical partial bladder outlet obstruction (BOO) or sham surgery. Five weeks after BOO (or sham) surgery, an intravesical catheter was surgically implanted into the dome of the bladder for conducting urodynamic studies. One week after catheter implantation (6 weeks after BOO or sham), urodynamic studies began. […] An analytic balance beneath the wire-bottom animal cage measured the amount of urine voided during continuous cystometry. […]
For each CMG cycle, the following parameters were assessed: infused volume (the amount of saline or drug infused for each CMG cycle); void volume (the amount of urine voided by the animal for each CMG cycle); minimum pressure (minimum pressure during filling); threshold pressure (pressure prior to micturition when bladder pressure begins to rise steeply); average pressure (average pressure during filling and before threshold); maximum pressure; intermicturition interval (time between two subsequent voiding events); urine flow rate index.

[5] = test system: bradykinin induced tactile allodynia; assay: Bradykinin induced pain model; type: in vivo, rat
Experimental: As outlined above, the bradykinin model involves an intraplantar injection of a 5 ng/uL solution of bradykinin. Injection of the bradykinin solution typically causes a rapid sensitization. Sensitization is measured by assessing the thermal escape latency of the injected paw in response to a mild thermal stimulus delivered by a modified Hargreaves apparatus. FIGS. 1a and 1b summarize data obtained following testing of Compound 200 in the bradykinin model. This study examined the antinociceptive effects of 200 mg/kg, 50 mg/kg, and 12.5 mg/kg intraperitoneal Compound 200 on bradykinin induced tactile allodynia. […] Inhibitor or vehicle were injected intraperitoneally (IP). […] Throughout the study, general behavioral assessments were made during each period of observation. Observations included tactile allodynia (vocalization/agitation induced by light touch applied to the body surface), spontaneous vocalization, biting and chewing of body surface, loss of hind limb placing and stepping reflex, loss of hind limb weight bearing, and loss of righting reflex. Additionally, mechanical allodynia was assessed and measured. The results provided in FIGS. 1a and 1b are based on assessment of mechanical allodynia.

[6] = test system: formalin induced paw flinching; assay: Formalin model of pain; type: in vivo, rat; conditions: 2% formalin intraplantar, drug 15 min before
Experimental: As outlined above, the formalin model involves injection of a formalin solution intradermally or […]. Injection of formalin solution invokes a biphasic response, and thus provides a model for both nociceptive and inflammatory pain. The formalin model can be used to evaluate the effectiveness of an exemplary TRPA1 inhibitor in the treatment of pain. […] Briefly, the following protocol was followed. Male Holtzmann rats received intraplantar injections of 50 μL of 2% formalin. Paw flinching was detected by an automated sensor detecting movement of a small metal band placed on the injected hind paw. Drug or vehicle was administered approximately 15 minutes prior to the injection of formalin. The animal's response to injection of the irritant was measured by counting flinches per minutes during the Early Phase (the first 5 minutes following injection of formalin), during the Late Phase (approximately 30 minutes after injection of formalin), and during the intervening pain free phase. In FIG. 2, the right most bar for each data set (Early Phase and Late Phase) represents administration of vehicle alone and the left most bar represents administration of gabapentin. […]

T1 sequence (O75762 whole entry K186N): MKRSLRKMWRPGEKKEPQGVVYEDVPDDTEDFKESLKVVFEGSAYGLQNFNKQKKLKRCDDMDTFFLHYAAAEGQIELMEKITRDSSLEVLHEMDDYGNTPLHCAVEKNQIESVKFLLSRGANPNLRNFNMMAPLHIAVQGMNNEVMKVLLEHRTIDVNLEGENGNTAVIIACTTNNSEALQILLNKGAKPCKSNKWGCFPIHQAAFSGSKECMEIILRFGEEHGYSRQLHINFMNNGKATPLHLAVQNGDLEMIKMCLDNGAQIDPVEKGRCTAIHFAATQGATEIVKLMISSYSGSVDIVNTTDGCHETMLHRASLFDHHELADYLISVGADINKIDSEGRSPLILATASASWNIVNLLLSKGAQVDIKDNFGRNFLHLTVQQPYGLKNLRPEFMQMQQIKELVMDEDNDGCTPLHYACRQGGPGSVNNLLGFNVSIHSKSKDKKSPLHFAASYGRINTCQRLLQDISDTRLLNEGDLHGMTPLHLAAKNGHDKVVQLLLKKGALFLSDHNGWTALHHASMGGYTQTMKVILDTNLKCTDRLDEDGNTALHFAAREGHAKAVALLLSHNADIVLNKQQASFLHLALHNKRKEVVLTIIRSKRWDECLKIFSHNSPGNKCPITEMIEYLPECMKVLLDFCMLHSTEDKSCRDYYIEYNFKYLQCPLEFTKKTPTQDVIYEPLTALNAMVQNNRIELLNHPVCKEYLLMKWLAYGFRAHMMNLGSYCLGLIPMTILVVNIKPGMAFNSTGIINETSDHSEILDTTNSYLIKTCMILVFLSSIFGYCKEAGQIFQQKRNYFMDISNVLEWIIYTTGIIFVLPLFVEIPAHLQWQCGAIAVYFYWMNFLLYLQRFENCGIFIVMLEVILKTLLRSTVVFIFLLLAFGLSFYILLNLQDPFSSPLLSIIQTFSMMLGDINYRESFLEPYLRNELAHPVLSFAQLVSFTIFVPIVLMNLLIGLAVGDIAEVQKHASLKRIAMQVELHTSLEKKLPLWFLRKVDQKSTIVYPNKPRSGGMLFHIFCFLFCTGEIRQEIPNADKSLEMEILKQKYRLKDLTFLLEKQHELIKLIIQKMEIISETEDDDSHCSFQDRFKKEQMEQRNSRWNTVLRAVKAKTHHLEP

Compound	IC50 (hTRPA1)	paw volume (inflammation) [1]	control paw (uninflamed) sensation ([2]; IP, tested 45 minutes later)	efficacy compared with diclofenac ([2]; IP, tested 45 minutes later)	thermal hyperalgesia, CFA injected paw ([2]; IP, tested 45 minutes later)	toxicity ([2]; rat, in vivo, 45 min)	time at which Cmax occurred [3]	maximum bladder pressure [4]	threshold bladder pressure [4]	effect on mechanical threshold after bradykinin injection ([5]; IP 12.5, 50, 200 mg/kg, 30 min before bradykinin)	behavioral parameters ([5]; IP doses up to 200 mg/kg)	sedation ([5]; highest dose (200 mg/kg IP))	flinches per minute, Early Phase [6]	flinches per minute, Late Phase [6]
COC(=O)c1ccc(C)c(NC(=O)Cn2cnc3c2c(=O)n(C)c(=O)n3C)c1 [Compound 346]	≤ 30 µM	–	–	–	–	–	–	–	–	–	–	–	–	–
CC(C)c1ccc(NC(=O)Cn2cnc3c2c(=O)n(C)c(=O)n3C)cc1 [Compound 200, 2-(1,3-dimethyl-2,6-dioxo-1,2,3,6-tetrahydropurin-7-yl)-N-(4-isopropylphenyl)acetamide]	–	decreased paw volume	not affected	superior to diclofenac	reduced thermal hyperalgesia	without toxicity	45 min	decreased	decreased	dose dependent effect	no changes	only mild sedation was observed in 3 of 8 rats	substantially reduced	substantially reduced

— patent publication US20100267750A1, “METHODS AND COMPOSITIONS FOR TREATING PAIN” (priority 2005, published 2010)
